These molecules were tested against T1, ligand binding domain of human ROR gamma (Homo sapiens, UniProt P51449) (assay: ROR gamma reporter gene assay (GAL4-RORγ LBD luciferase, Dual-Glo)). Conditions: HEK293T cells transfected with pM-ROR gamma, 8 concentrations 3.5 nM to 10.5 μM, 24 h incubation; read-out: result (pIC50, inhibition of RORγ transcriptional activity) (converted).
T1 construct: NM_001001523; expressed in transfected cells; host or cells: HEK293T
T1 sequence (P51449 247-497 isoform P51449-2): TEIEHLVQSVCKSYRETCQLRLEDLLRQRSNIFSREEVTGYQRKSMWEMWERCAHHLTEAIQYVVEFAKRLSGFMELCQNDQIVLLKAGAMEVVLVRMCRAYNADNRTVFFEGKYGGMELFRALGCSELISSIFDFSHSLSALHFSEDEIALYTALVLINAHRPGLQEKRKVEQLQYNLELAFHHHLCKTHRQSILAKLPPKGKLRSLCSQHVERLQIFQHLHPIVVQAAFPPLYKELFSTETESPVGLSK
Assay type: cell-based
Procedure, shortened: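 First, HEK293T cells are transfected with the GAL4–RORγ LBD construct, a 5×UAS luciferase reporter and a constitutive renilla control. Next, test compounds are added over eight concentrations (3.5 nM to 10.5 μM). After 24 h at 37 °C, Dual-Glo luminescence is measured and pIC50 fitted.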

| SMILES | IC50 |
| --- | --- |
| CC1(C)CC(CN(CC(=O)c2c(Cl)cc(Cl)cc2Cl)C(=O)c2cnn([C@H]3CC[C@](C)(C(=O)O)CC3)c2C(F)(F)F)C1 [Example 250, trans-4-(4-((3,3-dimethylcyclobutyl)methyl-(2-oxo-2-(2,4,6-trichlorophenyl)ethyl)carbamoyl)-5-(trifluoromethyl)pyrazol-1-yl)-1-methylcyclohexane-1-carboxylic acid] | < 3470 pM |
| CC1(C)CC(CN(CC(=O)c2c(Cl)cccc2C(F)(F)F)C(=O)c2cnn([C@H]3CC[C@](C)(C(=O)O)CC3)c2C(F)(F)F)C1 [Example 251, trans-4-(4-((2-(2-chloro-6-(trifluoromethyl)phenyl)-2-oxoethyl)-((3,3-dimethylcyclobutyl)methyl)carbamoyl)-5-(trifluoromethyl)pyrazol-1-yl)-1-methylcyclohexane-1-carboxylic acid] | 6030 pM |
| COc1cccc(Cl)c1C(=O)CN(CC1CC(C)(C)C1)C(=O)c1cnn([C@H]2CC[C@](C)(C(=O)O)CC2)c1C(F)(F)F [Example 252, trans-4-(4-((2-(2-chloro-6-methoxyphenyl)-2-oxoethyl)-((3,3-dimethylcyclobutyl)methyl)carbamoyl)-5-(trifluoromethyl)pyrazol-1-yl)-1-methylcyclohexane-1-carboxylic acid] | 10000 pM |
| COc1cccc(Cl)c1C(=O)CN(CC(C)(C)C)C(=O)c1cnn([C@H]2CC[C@](C)(C(=O)O)CC2)c1C(F)(F)F [Example 253, trans-4-(4-((2-(2-chloro-6-methoxyphenyl)-2-oxoethyl)-(2,2-dimethylpropyl)carbamoyl)-5-(trifluoromethyl)pyrazol-1-yl)-1-methylcyclohexane-1-carboxylic acid] | 45700 pM |
| COc1cccc(Cl)c1C(=O)CN(C(=O)c1cnn([C@H]2CC[C@](C)(C(=O)O)CC2)c1C(F)(F)F)C1CCC(C)(C)CC1 [Example 255, trans-4-(4-((2-(2-chloro-6-methoxyphenyl)-2-oxoethyl)-(4,4-dimethylcyclohexyl)carbamoyl)-5-(trifluoromethyl)pyrazol-1-yl)-1-methylcyclohexane-1-carboxylic acid] | 55000 pM |
| CC1(C)CC(CN(CC(=O)c2c(Cl)cc(Cl)cc2Cl)C(=O)c2cnn(C34CCC(C(=O)O)(CC3)CC4)c2C(F)(F)F)C1 [Example 256, 4-(4-((3,3-dimethylcyclobutyl)methyl-(2-oxo-2-(2,4,6-trichlorophenyl)ethyl)carbamoyl)-5-(trifluoromethyl)pyrazol-1-yl)bicyclo[2.2.2]octane-1-carboxylic acid] | 6030 pM |
| COc1cccc(Cl)c1C(=O)CN(CC1CC(C)(C)C1)C(=O)c1cnn(C23CCC(C(=O)O)(CC2)CC3)c1C(F)(F)F [Example 257, 4-(4-((2-(2-chloro-6-methoxyphenyl)-2-oxoethyl)-((3,3-dimethylcyclobutyl)methyl)carbamoyl)-5-(trifluoromethyl)pyrazol-1-yl)bicyclo[2.2.2]octane-1-carboxylic acid] | 20000 pM |
| CC1(C)CC(CN(CC(=O)c2c(Cl)cccc2C(F)(F)F)C(=O)c2cnn(C34CCC(C(=O)O)(CC3)CC4)c2C(F)(F)F)C1 [Example 258, 4-(4-((2-(2-chloro-6-(trifluoromethyl)phenyl)-2-oxoethyl)-((3,3-dimethylcyclobutyl)methyl)carbamoyl)-5-(trifluoromethyl)pyrazol-1-yl)bicyclo[2.2.2]octane-1-carboxylic acid] | 6610 pM |
| COc1cccc(Cl)c1C(=O)CN(CC1CCC(C)(C)CC1)C(=O)c1cnn([C@H]2CC[C@](C)(C(=O)O)CC2)c1C(F)(F)F [Example 259, trans-4-(4-((2-(2-chloro-6-methoxyphenyl)-2-oxoethyl)-((4,4-dimethylcyclohexyl)methyl)carbamoyl)-5-(trifluoromethyl)pyrazol-1-yl)-1-methylcyclohexane-1-carboxylic acid] | 117000 pM |
| CC12CCC(CN(CC(=O)c3c(Cl)cc(Cl)cc3Cl)C(=O)c3cnn([C@H]4CC[C@](C)(C(=O)O)CC4)c3C(F)(F)F)(CC1)O2 [Example 260, trans-4-(4-((1-methyl-7-oxabicyclo[2.2.1]heptan-4-yl)methyl-(2-oxo-2-(2,4,6-trichlorophenyl)ethyl)carbamoyl)-5-(trifluoromethyl)pyrazol-1-yl)-1-methylcyclohexane-1-carboxylic acid] | 6030 pM |
| Cc1cc(Cl)c(C(=O)CN(CC23CCC(C)(CC2)O3)C(=O)c2cnn(C34CCC(C(=O)O)(CC3)CC4)c2C(F)(F)F)c(Cl)c1 [Example 261, 4-(4-((2-(2,6-dichloro-4-methylphenyl)-2-oxoethyl)-((1-methyl-7-oxabicyclo[2.2.1]heptan-4-yl)methyl)carbamoyl)-5-(trifluoromethyl)pyrazol-1-yl)bicyclo[2.2.2]octane-1-carboxylic acid] | 4570 pM |
| O=C(CN(CC12CCC(CC1)O2)C(=O)c1cnn([C@H]2CC[C@H](C(=O)O)CC2)c1C(F)(F)F)c1c(Cl)cncc1Cl [Example 262, trans-4-(4-((2-(3,5-dichloropyridin-4-yl)-2-oxoethyl)-(7-oxabicyclo[2.2.1]heptan-4-ylmethyl)carbamoyl)-5-(trifluoromethyl)pyrazol-1-yl)cyclohexane-1-carboxylic acid] | 40700 pM |
| CC(C)(C)CN(CC(=O)c1c(Cl)cccc1C(F)(F)F)C(=O)c1cnn(C23CCC(C(=O)O)(CC2)CC3)c1C(F)(F)F [Example 263, 4-(4-((2-(2-chloro-6-(trifluoromethyl)phenyl)-2-oxoethyl)-(2,2-dimethylpropyl)carbamoyl)-5-(trifluoromethyl)pyrazol-1-yl)bicyclo[2.2.2]octane-1-carboxylic acid] | 5890 pM |
| CC1(C)[C@@H]2C[C@H](N(CC(=O)c3c(Cl)cncc3Cl)C(=O)c3cnn([C@H]4CC[C@H](C(=O)O)CC4)c3C(F)(F)F)C[C@@H]21 [Example 264, trans-4-(4-((2-(3,5-dichloropyridin-4-yl)-2-oxoethyl)-((1R,3r,5S)-6,6-dimethyl-3-bicyclo[3.1.0]hexanyl)carbamoyl)-5-(trifluoromethyl)pyrazol-1-yl)cyclohexane-1-carboxylic acid] | 8130 pM |
| CC(C)(C)CN(CC(=O)c1c(Cl)cccc1C(F)(F)F)C(=O)c1cnn([C@H]2CC[C@](C)(C(=O)O)CC2)c1C(F)(F)F [Example 265] | 18200 pM |
| CC1(C)CC(CN(CC(=O)c2c(Cl)cc(F)cc2Cl)C(=O)c2cnn(C34CCC(C(=O)O)(CC3)CC4)c2C(F)(F)F)C1 [Example 266, 4-(4-((2-(2,6-dichloro-4-fluorophenyl)-2-oxoethyl)-((3,3-dimethylcyclobutyl)methyl)carbamoyl)-5-(trifluoromethyl)pyrazol-1-yl)bicyclo[2.2.2]octane-1-carboxyIic acid] | 5370 pM |
| CC12CCC(CN(CC(=O)c3c(Cl)cncc3Cl)C(=O)c3cnn([C@H]4CC[C@](C)(C(=O)O)CC4)c3C(F)(F)F)(CC1)C2 [Example 267, trans-4-(4-((2-(3,5-dichloropyridin-4-yl)-2-oxoethyl)-((1-methyl-4-bicyclo[2.2.1]heptanyl)methyl)carbamoyl)-5-(trifluoromethyl)pyrazol-1-yl)-1-methylcyclohexane-1-carboxylic acid] | 13500 pM |
| Cc1cc(Cl)cc(C)c1C(=O)CN(Cc1cc(F)cc(F)c1)C(=O)c1cnn([C@H]2CC[C@H](C(=O)O)CC2)c1C(F)(F)F [Example 268, trans-4-(4-((2-(4-chloro-2,6-dimethylphenyl)-2-oxoethyl)-((3,5-difluorophenyl)methyl)carbamoyl)-5-(trifluoromethyl)pyrazol-1-yl)cyclohexane-1-carboxylic acid] | 107000 pM |
| Cc1cc(C)c(C(=O)CN(Cc2cc(F)cc(F)c2)C(=O)c2cnn([C@H]3CC[C@H](C(=O)O)CC3)c2C(F)(F)F)c(Cl)c1 [Example 269, trans-4-(4-((2-(2-chloro-4,6-dimethylphenyl)-2-oxoethyl)-((3,5-difluorophenyl)methyl)carbamoyl)-5-(trifluoromethyl)pyrazol-1-yl)cyclohexane-1-carboxylic acid] | 8130 pM |
| C[C@]1(C(=O)O)CC[C@H](n2ncc(C(=O)N(CC(=O)c3c(Cl)cccc3C(F)(F)F)CC3(F)CCCC3)c2C(F)(F)F)CC1 [Example 270, trans-4-(4-((2-(2-chloro-6-(trifluoromethyl)phenyl)-2-oxoethyl)-((1-fluorocyclopentyl)methyl)carbamoyl)-5-(trifluoromethyl)pyrazol-1-yl)-1-methylcyclohexane-1-carboxylic acid] | 16200 pM |
| O=C(CN(CC1(F)CCCC1)C(=O)c1cnn(C23CCC(C(=O)O)(CC2)CC3)c1C(F)(F)F)c1c(Cl)cc(F)cc1Cl [Example 271, 4-(4-((2-(2,6-dichloro-4-fluorophenyl)-2-oxoethyl)-((1-fluorocyclopentyl)methyl)carbamoyl)-5-(trifluoromethyl)pyrazol-1-yl)bicyclo[2.2.2]octane-1-carboxylic acid] | 5130 pM |
| C[C@]1(C(=O)O)CC[C@H](n2ncc(C(=O)N(CC(=O)c3c(Cl)cncc3Cl)CC3(F)CCCC3)c2C(F)(F)F)CC1 [Example 272, trans-4-(4-((2-(3,5-dichloropyridin-4-yl)-2-oxoethyl)-((1-fluorocyclopentyl)methyl)carbamoyl)-5-(trifluoromethyl)pyrazol-1-yl)-1-methylcyclohexane-1-carboxylic acid] | 11200 pM |

Source: patent publication US9365522B2, “Pyrazole amide derivative” (AMGEN INC., priority 2015, dated 2016)
